Measurements reported in PubChem BioAssay AID330 (DTP/NCI, 2004).
Where “and” joins values, the source holds several entries; their conditions need not be identical. Equal values may be shown once. Toxic doses and inconclusive results are not listed.

Test system: P388 leukemia ip, CD2F1 mice, survival T/C
Assay: NCI In Vivo Anticancer Drug Screen. Data for tumor model P388 Leukemia (intraperitoneal) in CD2F1 (CDF1) mice
Conditions: endpoint: median survival time, higher = longer survival
How it was run: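 Mice carrying the transplanted tumor received test compound or vehicle. Survival was recorded in each group, and the value is the treated-group measurement divided by that of the vehicle-treated control group.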

[1] = dose: 50.0 mg/kg/injection, schedule: Q01DX009 (ip), vehicle: Klucel (hydroxypropylcellulose) (HPC)
[2] = dose: 100.0 mg/kg/injection, schedule: Q01DX009 (ip), vehicle: Klucel (hydroxypropylcellulose) (HPC)
[3] = dose: 200.0 mg/kg/injection, schedule: Q01DX009 (ip), vehicle: Klucel (hydroxypropylcellulose) (HPC)
[4] = dose: 50.0 mg/kg/injection, schedule: Q01DX005 (ip), vehicle: saline with Tween-80
[5] = dose: 100.0 mg/kg/injection, schedule: Q01DX005 (ip), vehicle: saline with Tween-80
[6] = dose: 100.0 mg/kg/injection, schedule: Q01DX009 (ip), vehicle: saline
[7] = dose: 200.0 mg/kg/injection, schedule: Q01DX009 (ip), vehicle: saline
[8] = dose: 50.0 mg/kg/injection, schedule: Q04DX002 (ip), vehicle: saline with Tween-80
[9] = dose: 100.0 mg/kg/injection, schedule: Q04DX002 (ip), vehicle: saline with Tween-80

With `C/C=C(\C)C(=O)OC1C2C(C)C(=O)OC2C(O)C(C)C2C=CC(=O)C21C` (stereo unspecified) the T/C (dose: 2.5 mg/kg/injection, schedule: Q01DX009 (ip), vehicle: Klucel (hydroxypropylcellulose) (HPC)) was 100 % of control, the T/C (dose: 5.0 mg/kg/injection, schedule: Q01DX009 (ip), vehicle: Klucel (hydroxypropylcellulose) (HPC)) was 106 % of control and the T/C (dose: 10.0 mg/kg/injection, schedule: Q01DX009 (ip), vehicle: Klucel (hydroxypropylcellulose) (HPC)) was 99 % of control. The T/C (dose: 20.0 mg/kg/injection, schedule: Q01DX009 (ip), vehicle: Klucel (hydroxypropylcellulose) (HPC)) was 108 % of control.
`O=[N+]([O-])c1cc(S(=O)(=O)O)c2cccnc2c1O` was tested, and the T/C (dose: 100.0 mg/kg/injection, schedule: Q04DX003 (ip), vehicle: saline) was 86 % of control, the T/C (dose: 200.0 mg/kg/injection, schedule: Q04DX003 (ip), vehicle: saline) was 89 % of control and the T/C (dose: 400.0 mg/kg/injection, schedule: Q04DX003 (ip), vehicle: saline) was 88 % of control.
In the case of `CCN(CC)C(=O)S(=O)(=O)c1ccccc1`, the T/C (dose: 12.5 mg/kg/injection, schedule: Q01DX009 (ip), vehicle: Klucel (hydroxypropylcellulose) (HPC)) is reported as 106 % of control, the T/C (dose: 25.0 mg/kg/injection, schedule: Q01DX009 (ip), vehicle: Klucel (hydroxypropylcellulose) (HPC)) is reported as 101 % of control and 98 % of control and the T/C [1] is reported as 120 % of control. For the same molecule, the T/C [2] was 111 % of control and the T/C [3] was 110 % of control.
With `O=C(OCc1ccccc1)SS(=O)(=O)O` the T/C [1] was 95 % of control, the T/C [2] was 110 % of control and the T/C [3] was 119 % of control.
For `O=C1OC(C2=CC(=O)c3ccccc3C2=O)C(Cl)=C1Cl` (stereo unspecified), the T/C [4] was 121 % of control and the T/C [5] was 109 % of control.
For `O=C(O)c1ccccc1N/N=C\c1cc(/C=N/Nc2ccccc2C(=O)O)nc2[nH]c(=O)ccc12`, the T/C (dose: 100.0 mg/kg/injection, schedule: Q04DX002 (ip), vehicle: Klucel (hydroxypropylcellulose) (HPC)) was 102 % of control, the T/C (dose: 200.0 mg/kg/injection, schedule: Q04DX002 (ip), vehicle: Klucel (hydroxypropylcellulose) (HPC)) was 107 % of control and the T/C (dose: 400.0 mg/kg/injection, schedule: Q04DX002 (ip), vehicle: Klucel (hydroxypropylcellulose) (HPC)) was 105 % of control.
In the case of `CC(C)CC(=O)Nc1ccc(S(=O)(=O)Cl)cc1`, the T/C [6] is reported as 100 % of control, the T/C [7] is reported as 90 % of control and the T/C (dose: 400.0 mg/kg/injection, schedule: Q01DX009 (ip), vehicle: saline) is reported as 90 % of control.
With `NC(=S)n1nc(-c2ccccc2)c(N=Nc2ccc([N+](=O)[O-])cc2)c1-c1ccccc1` the T/C (dose: 25.0 mg/kg/injection, schedule: Q04DX002 (ip), vehicle: saline with Tween-80) was 100 % of control, the T/C [8] was 97 % of control and the T/C [9] was 87 % of control and 88 % of control. For the same molecule, the T/C (dose: 400.0 mg/kg/injection, schedule: Q04DX002 (ip), vehicle: saline with Tween-80) was 92 % of control.
For `CC(=O)NNC(=O)c1ccccn1`, the T/C (dose: 12.5 mg/kg/injection, schedule: Q01DX009 (ip), vehicle: saline) was 90 % of control, the T/C (dose: 25.0 mg/kg/injection, schedule: Q01DX009 (ip), vehicle: saline) was 92 % of control and the T/C (dose: 50.0 mg/kg/injection, schedule: Q01DX009 (ip), vehicle: saline) was 96 % of control. For the same molecule, the T/C (dose: 50.0 mg/kg/injection, schedule: Q01DX009 (ip), vehicle: water) was 110 % of control, the T/C (dose: 75.0 mg/kg/injection, schedule: Q01DX009 (ip), vehicle: water) was 110 % of control and the T/C [6] was 100 % of control. The T/C (dose: 100.0 mg/kg/injection, schedule: Q01DX009 (ip), vehicle: water) was 120 % of control, the T/C (dose: 125.0 mg/kg/injection, schedule: Q01DX009 (ip), vehicle: water) was 120 % of control and the T/C [7] was 88 % of control.
In the case of `COc1cccc2c1C(=O)c1c(O)c3c(c(O)c1C2=O)CC(O)(C(C)=O)CC3OC1CC(N)C(OC2CC(N)C(O)C(C)O2)C(C)O1` (stereo unspecified), the T/C (dose: 0.39 mg/kg/injection, schedule: Q01DX009 (ip), vehicle: water) is reported as 116 % of control, the T/C (dose: 1.56 mg/kg/injection, schedule: Q01DX009 (ip), vehicle: water) is reported as 150 % of control and the T/C (dose: 3.13 mg/kg/injection, schedule: Q01DX009 (ip), vehicle: water) is reported as 161 % of control and 196 % of control. For the same molecule, the T/C (dose: 3.13 mg/kg/injection, schedule: Q04DX003 (ip), vehicle: water) was 112 % of control, the T/C (dose: 6.25 mg/kg/injection, schedule: Q01DX009 (ip), vehicle: water) was 113 % of control and 116 % of control and the T/C (dose: 6.25 mg/kg/injection, schedule: Q04DX003 (ip), vehicle: water) was 103 % of control. The T/C (dose: 12.5 mg/kg/injection, schedule: Q01DX009 (ip), vehicle: water) was 114 % of control and 86 % of control, the T/C (dose: 12.5 mg/kg/injection, schedule: Q04DX003 (ip), vehicle: water) was 103 % of control and the T/C (dose: 25.0 mg/kg/injection, schedule: Q04DX003 (ip), vehicle: water) was 121 % of control. For the same molecule, the T/C (dose: 50.0 mg/kg/injection, schedule: Q04DX003 (ip), vehicle: water) was 112 % of control.
`COc1ccc(CS(=O)(=O)c2cnc(N/N=C/c3ccc([N+](=O)[O-])o3)nc2N)c(OC)c1` was tested, and the T/C (dose: 100.0 mg/kg/injection, schedule: Q01DX001 (ip), vehicle: saline) was 94 % of control, the T/C (dose: 200.0 mg/kg/injection, schedule: Q01DX001 (ip), vehicle: saline) was 94 % of control and the T/C (dose: 400.0 mg/kg/injection, schedule: Q01DX001 (ip), vehicle: saline) was 92 % of control.
In the case of `COC(=O)n1c(=O)oc2ccc(Br)cc21`, the T/C (dose: 50.0 mg/kg/injection, schedule: Q01DX005 (ip), vehicle: Klucel (hydroxypropylcellulose) (HPC)) is reported as 104 % of control, the T/C (dose: 100.0 mg/kg/injection, schedule: Q01DX005 (ip), vehicle: Klucel (hydroxypropylcellulose) (HPC)) is reported as 106 % of control and the T/C (dose: 200.0 mg/kg/injection, schedule: Q01DX005 (ip), vehicle: Klucel (hydroxypropylcellulose) (HPC)) is reported as 102 % of control.
In the case of `Cc1cc(C)n(C2=NC3(c4ccc(Cl)cc4)NC(=O)NC3(c3ccc(Cl)cc3)N2)n1` (stereo unspecified), the T/C [8] is reported as 96 % of control, the T/C [9] is reported as 97 % of control and the T/C (dose: 200.0 mg/kg/injection, schedule: Q04DX002 (ip), vehicle: saline with Tween-80) is reported as 93 % of control.
For `CS(=O)(=O)Nc1ccc(Nc2c3ccccc3nc3cc(N)ccc23)cc1`, the T/C (dose: 1.32 mg/kg/injection, schedule: Q04DX003 (ip), vehicle: saline) was 154 % of control, the T/C (dose: 1.78 mg/kg/injection, schedule: Q04DX003 (ip), vehicle: saline) was 167 % of control and the T/C (dose: 2.0 mg/kg/injection, schedule: Q04DX003 (ip), vehicle: saline) was 172 % of control. The T/C (dose: 2.66 mg/kg/injection, schedule: Q04DX003 (ip), vehicle: saline) was 158 % of control, the T/C (dose: 2.9 mg/kg/injection, schedule: Q04DX003 (ip), vehicle: saline) was 187 % of control and the T/C (dose: 3.0 mg/kg/injection, schedule: Q04DX003 (ip), vehicle: saline) was 181 % of control. The T/C (dose: 4.0 mg/kg/injection, schedule: Q04DX003 (ip), vehicle: saline) was 155 % of control, the T/C (dose: 4.4 mg/kg/injection, schedule: Q04DX003 (ip), vehicle: saline) was 204 % of control and the T/C (dose: 4.5 mg/kg/injection, schedule: Q04DX003 (ip), vehicle: saline) was 163 % of control. For the same molecule, the T/C (dose: 6.0 mg/kg/injection, schedule: Q04DX003 (ip), vehicle: saline) was 192 % of control, the T/C (dose: 6.6 mg/kg/injection, schedule: Q04DX003 (ip), vehicle: saline) was 212 % of control and the T/C (dose: 10.0 mg/kg/injection, schedule: Q04DX003 (ip), vehicle: saline) was 112 % of control.
In the case of `CC1=Nc2ccccc2NC2(C1)C(C1COC(C)(C)O1)OC1OC(C)(C)OC12` (stereo unspecified), the T/C [4] is reported as 95 % of control, the T/C [5] is reported as 99 % of control and the T/C (dose: 200.0 mg/kg/injection, schedule: Q01DX005 (ip), vehicle: saline with Tween-80) is reported as 100 % of control.
In the case of `Cc1csc(N=Nc2ccc(N(C)C)cc2)[n+]1[O-]`, the T/C [1] is reported as 103 % of control, the T/C [2] is reported as 109 % of control and the T/C [3] is reported as 108 % of control.
In the case of `O=C(NC(=S)c1cccs1)Nc1ccccc1`, the T/C (dose: 4.0 mg/kg/injection, schedule: Q01DX009 (ip), vehicle: saline with Tween-80) is reported as 89 % of control, the T/C (dose: 8.0 mg/kg/injection, schedule: Q01DX009 (ip), vehicle: saline with Tween-80) is reported as 94 % of control and the T/C (dose: 16.0 mg/kg/injection, schedule: Q01DX009 (ip), vehicle: saline with Tween-80) is reported as 87 % of control. The T/C (dose: 50.0 mg/kg/injection, schedule: Q01DX009 (ip), vehicle: saline with Tween-80) was 89 % of control and the T/C (dose: 100.0 mg/kg/injection, schedule: Q01DX009 (ip), vehicle: saline with Tween-80) was 100 % of control.
`Cc1cccnc1OCC(=O)O` was tested, and the T/C (dose: 60.0 mg/kg/injection, schedule: Q01DX005 (ip), vehicle: Klucel (hydroxypropylcellulose) (HPC)) was 100 % of control and 93 % of control, the T/C (dose: 120.0 mg/kg/injection, schedule: Q01DX005 (ip), vehicle: Klucel (hydroxypropylcellulose) (HPC)) was 103 % of control and 90 % of control and the T/C (dose: 240.0 mg/kg/injection, schedule: Q01DX005 (ip), vehicle: Klucel (hydroxypropylcellulose) (HPC)) was 100 % of control and 92 % of control.
